Experimental data as given in patent US20160287497A1, “USE AS A DEODORANT AGENT OF A SALIFIED SALICYLIC ACID DERIVATIVE, ALONE OR IN A MIXTURE” (L'OREAL, priority 2013, published 2016).

What was measured:
Corynebacterium xerosis = test: Effect on Corynebacterium xerosis: growth inhibition in microplate, MIC; type: cell-based
Procedure: • Test principle: contacting of decreasing concentrations of compounds under evaluation with an identical inoculum of microorganisms in a culture medium suitable for the growth of C. xerosis.
The dilutions of the compounds under evaluation are performed in agar at 1:1000, making it possible, for dispersible compounds under evaluation, to do away with the use of a solvent which could introduce bias in the evaluation of the compounds. The concentration range chosen was: 1%, 0.3%, 0.03% and 0.003%. Each concentration was tested in triplicate.
To ensure that the potential inhibitory activity was not associated with a pH effect, the pH of the culture medium was verified at the end of incubation.
The compound mixtures M0 and M2 were evaluated based on this protocol, along with n-octanoyl-5-salicylic acid (comparison).

[1] = Anti-odor effect: ex-vivo olfactory evaluation test on incubated sweat
Procedure: The deodorant activity was evaluated in the ex-vivo olfactory evaluation test, on incubated sweat.
Each compound under evaluation was introduced at a rate of 0.3 mg into 1 mL of sweat. The compounds under evaluation were weighed in 25 or 30 mL pill bottles and 1 mL from a pool of fresh sweat was then added. The pill bottles were hermetically sealed and placed in an incubator at 35° C. for 24 hours. After being removed from the incubator, the pill bottles were opened and allowed to cool to ambient temperature.
A panel of sixteen people performed an olfactory analysis of each pill bottle. The efficacy of each compound evaluated was determined in comparison to a negative control (incubated sweat alone).

Compound: CCCCCCCC(=O)c1ccc(O)c(C(=O)O)c1 [N-octanoyl-5-salicylic acid, n-octanoyl-5-salicylic acid]
- MIC C. xerosis (Corynebacterium xerosis; incubation 24 to 48 hours, Optical Density 620 nm vs growth control, range tested 1%, 0.3%, 0.03%, 0.003%, triplicate): <0.003%
- growth of C. xerosis (result in words) (Corynebacterium xerosis; same protocol as Table 1): inhibit the growth of C. xerosis
- % Variation incubated sweat intensity ([1]; 0.3 mg in 1 mL of sweat, 35° C. for 24 hours, panel of sixteen people, vs incubated sweat alone): −57%
- unpleasant odor of incubated sweat (result in words) ([1]; same protocol as Table 2): reduce the unpleasant odor of incubated sweat
